One may read the IC50 as the concentration needed to halve the response being measured. Read a high IC50 as weaker potency.

Some results are limits rather than exact numbers.

Among the data in ChEMBL document CHEMBL1133420, “Parallel synthesis of a series of subtype-selective NMDA receptor antagonists” (Bioorg Med Chem Lett, 2000) are IC50 values, retold here.

Holding throughout (format): functional, cell-based, Oocyte
The target of experiment [1] is Glutamate receptor ionotropic, NMDA 2C (Homo sapiens, UniProt Q05586+Q14957). As to the kind of experiment: Antagonistic activity against NR1A/2C receptor in frog oocytes.
Experiment [2] addresses Glutamate receptor ionotropic, NMDA 2A (Homo sapiens, UniProt Q05586+Q12879). As to the kind of experiment: Antagonistic activity against NR1A/2A receptors in frog oocytes.
Experiment [3] deals with Glutamate receptor ionotropic, NMDA 2B (Homo sapiens, UniProt Q05586+Q13224). As to the kind of experiment: Antagonistic activity against NR1A/2B receptor in frog oocytes.
Sequence of Glutamate receptor ionotropic, NMDA 2B (Q13224 whole entry, one chain of several): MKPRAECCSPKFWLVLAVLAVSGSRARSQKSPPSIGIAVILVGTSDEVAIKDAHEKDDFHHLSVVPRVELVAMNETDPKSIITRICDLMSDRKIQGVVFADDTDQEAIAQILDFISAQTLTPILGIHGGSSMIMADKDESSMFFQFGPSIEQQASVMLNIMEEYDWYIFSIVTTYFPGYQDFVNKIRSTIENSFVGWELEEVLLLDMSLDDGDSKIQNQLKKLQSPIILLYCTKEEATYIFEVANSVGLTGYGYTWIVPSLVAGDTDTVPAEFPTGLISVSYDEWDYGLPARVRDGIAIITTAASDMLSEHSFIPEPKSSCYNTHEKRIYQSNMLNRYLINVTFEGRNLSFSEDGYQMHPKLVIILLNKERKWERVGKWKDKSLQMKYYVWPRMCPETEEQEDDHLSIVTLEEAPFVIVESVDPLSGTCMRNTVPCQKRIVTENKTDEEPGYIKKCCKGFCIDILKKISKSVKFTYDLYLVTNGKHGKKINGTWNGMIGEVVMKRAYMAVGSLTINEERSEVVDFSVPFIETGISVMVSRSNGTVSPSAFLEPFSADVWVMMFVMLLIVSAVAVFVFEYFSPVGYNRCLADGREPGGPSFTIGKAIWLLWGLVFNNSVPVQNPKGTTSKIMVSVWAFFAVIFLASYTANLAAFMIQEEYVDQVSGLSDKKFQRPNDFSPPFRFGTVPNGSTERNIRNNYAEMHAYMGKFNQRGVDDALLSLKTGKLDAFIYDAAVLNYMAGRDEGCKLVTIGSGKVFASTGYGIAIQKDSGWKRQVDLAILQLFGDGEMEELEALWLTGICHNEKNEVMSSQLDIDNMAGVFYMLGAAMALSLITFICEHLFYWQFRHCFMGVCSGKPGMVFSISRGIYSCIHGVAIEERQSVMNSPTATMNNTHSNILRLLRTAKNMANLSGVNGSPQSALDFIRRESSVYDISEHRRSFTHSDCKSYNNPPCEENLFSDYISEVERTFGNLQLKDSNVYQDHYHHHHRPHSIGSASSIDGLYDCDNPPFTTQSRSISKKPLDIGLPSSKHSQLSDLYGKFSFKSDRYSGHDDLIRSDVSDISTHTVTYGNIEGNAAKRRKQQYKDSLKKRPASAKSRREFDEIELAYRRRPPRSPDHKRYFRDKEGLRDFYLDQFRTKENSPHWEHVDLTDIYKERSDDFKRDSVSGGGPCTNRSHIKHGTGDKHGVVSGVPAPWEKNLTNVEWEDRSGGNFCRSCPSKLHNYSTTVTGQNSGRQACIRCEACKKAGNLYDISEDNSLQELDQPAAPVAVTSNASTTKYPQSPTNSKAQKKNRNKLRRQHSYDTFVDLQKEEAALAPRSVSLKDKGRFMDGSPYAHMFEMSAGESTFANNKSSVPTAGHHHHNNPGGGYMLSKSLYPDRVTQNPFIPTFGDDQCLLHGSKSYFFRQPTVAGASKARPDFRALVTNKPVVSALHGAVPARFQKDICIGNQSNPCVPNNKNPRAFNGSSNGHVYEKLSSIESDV

Sequence of Glutamate receptor ionotropic, NMDA 2A (Q12879 whole entry, one chain of several): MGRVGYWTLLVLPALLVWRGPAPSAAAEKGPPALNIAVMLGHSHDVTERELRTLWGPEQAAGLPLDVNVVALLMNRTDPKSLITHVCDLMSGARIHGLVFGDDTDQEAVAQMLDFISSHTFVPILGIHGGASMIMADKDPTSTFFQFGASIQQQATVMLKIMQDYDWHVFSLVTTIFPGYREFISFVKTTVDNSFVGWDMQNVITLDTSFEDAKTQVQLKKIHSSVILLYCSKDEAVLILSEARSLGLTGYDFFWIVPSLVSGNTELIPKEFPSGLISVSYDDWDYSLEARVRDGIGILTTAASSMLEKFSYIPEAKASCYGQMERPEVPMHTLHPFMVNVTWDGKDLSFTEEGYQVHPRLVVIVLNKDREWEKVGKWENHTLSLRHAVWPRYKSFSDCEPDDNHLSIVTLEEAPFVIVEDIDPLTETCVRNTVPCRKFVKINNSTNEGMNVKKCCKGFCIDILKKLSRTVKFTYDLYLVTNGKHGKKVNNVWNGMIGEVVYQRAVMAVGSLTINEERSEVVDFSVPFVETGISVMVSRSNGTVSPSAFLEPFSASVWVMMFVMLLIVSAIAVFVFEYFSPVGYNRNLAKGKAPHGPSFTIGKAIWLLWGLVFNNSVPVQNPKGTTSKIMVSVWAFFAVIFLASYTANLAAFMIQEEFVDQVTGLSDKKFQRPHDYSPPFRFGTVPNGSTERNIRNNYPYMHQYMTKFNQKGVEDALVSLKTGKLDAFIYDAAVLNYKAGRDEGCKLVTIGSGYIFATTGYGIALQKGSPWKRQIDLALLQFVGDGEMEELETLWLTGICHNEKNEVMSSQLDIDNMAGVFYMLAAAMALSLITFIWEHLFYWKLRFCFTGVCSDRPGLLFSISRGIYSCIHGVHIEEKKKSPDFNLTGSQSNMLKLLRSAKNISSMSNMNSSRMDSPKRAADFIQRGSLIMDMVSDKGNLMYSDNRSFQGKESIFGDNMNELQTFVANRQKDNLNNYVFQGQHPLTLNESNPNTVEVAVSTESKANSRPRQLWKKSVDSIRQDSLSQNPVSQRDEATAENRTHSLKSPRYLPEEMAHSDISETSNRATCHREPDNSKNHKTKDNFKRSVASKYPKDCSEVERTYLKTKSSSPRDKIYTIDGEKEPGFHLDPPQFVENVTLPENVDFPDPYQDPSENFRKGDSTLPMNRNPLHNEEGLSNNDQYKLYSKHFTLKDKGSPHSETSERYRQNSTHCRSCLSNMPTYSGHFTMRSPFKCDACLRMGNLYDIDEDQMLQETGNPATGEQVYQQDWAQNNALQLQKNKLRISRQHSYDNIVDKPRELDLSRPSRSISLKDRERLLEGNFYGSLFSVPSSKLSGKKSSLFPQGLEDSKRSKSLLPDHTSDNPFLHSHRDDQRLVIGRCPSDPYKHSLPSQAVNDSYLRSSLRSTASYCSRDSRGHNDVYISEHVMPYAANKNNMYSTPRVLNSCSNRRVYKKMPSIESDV
Sequence of Glutamate receptor ionotropic, NMDA 2C (Q14957 whole entry, one chain of several): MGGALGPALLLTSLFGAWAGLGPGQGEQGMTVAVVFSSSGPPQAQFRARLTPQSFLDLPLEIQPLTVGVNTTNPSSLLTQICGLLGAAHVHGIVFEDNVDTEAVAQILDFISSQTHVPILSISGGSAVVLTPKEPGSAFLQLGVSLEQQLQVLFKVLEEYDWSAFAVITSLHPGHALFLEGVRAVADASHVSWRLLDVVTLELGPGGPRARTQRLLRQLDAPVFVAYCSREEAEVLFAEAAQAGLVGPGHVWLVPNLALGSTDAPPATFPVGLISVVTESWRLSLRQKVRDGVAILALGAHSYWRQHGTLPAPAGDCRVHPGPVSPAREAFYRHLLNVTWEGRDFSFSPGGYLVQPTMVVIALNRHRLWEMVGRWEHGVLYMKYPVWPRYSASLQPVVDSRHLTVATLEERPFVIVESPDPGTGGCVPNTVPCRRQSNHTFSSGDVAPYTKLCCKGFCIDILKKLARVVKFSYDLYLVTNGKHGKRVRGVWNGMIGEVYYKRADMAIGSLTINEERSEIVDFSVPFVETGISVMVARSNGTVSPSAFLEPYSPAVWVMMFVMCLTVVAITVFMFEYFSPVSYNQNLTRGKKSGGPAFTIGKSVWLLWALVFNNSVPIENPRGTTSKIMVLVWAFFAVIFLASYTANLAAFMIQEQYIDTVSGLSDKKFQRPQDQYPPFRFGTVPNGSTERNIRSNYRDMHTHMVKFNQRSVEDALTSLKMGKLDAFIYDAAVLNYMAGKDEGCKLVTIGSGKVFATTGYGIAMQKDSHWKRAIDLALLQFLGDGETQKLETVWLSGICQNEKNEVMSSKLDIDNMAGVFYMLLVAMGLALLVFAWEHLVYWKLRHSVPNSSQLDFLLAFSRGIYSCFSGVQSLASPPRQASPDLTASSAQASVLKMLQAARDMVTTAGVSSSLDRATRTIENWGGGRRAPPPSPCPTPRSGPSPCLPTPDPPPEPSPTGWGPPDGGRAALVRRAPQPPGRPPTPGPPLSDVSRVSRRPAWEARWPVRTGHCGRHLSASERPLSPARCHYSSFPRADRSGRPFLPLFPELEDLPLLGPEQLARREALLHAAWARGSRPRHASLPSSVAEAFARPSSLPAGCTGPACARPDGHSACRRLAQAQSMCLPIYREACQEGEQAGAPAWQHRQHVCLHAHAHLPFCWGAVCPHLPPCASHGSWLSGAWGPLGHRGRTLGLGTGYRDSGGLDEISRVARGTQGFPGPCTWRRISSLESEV

Consider `c1ccc(CC2CCN(CCCSc3nc4ccccc4[nH]3)CC2)cc1`, for which the concentration for half-maximal inhibition (IC50) in experiment [1] is 51 µM; in experiment [2] it was 64 µM; in experiment [3], 1 µM.
Regarding `c1ccc(CC2CCN(CCSc3nc4ccccc4[nH]3)CC2)cc1`, the IC50 in experiment [1] was above 100 µM; in experiment [3], 0.38 µM.
With `Oc1ccc(SCCN2CCC(Cc3ccccc3)CC2)cc1`, the figures for the concentration for half-maximal inhibition (IC50) in experiment [1], in experiment [2] and in experiment [3] were above 100 µM, 35 µM and 0.1 µM, respectively.
Taken in the same sequence, the figures for `c1ccc(CC2CCN(CCCSc3nc4ncccc4[nH]3)CC2)cc1` were above 100 µM, above 100 µM and 1.6 µM.
The like results for `Cc1nnc(SCCCN2CCC(Cc3ccccc3)CC2)s1` were, in that order, above 100 µM, above 100 µM and 6.4 µM.
The like results for `Nc1n[nH]c(SCCCN2CCC(Cc3ccccc3)CC2)n1` were, in that order, above 100 µM, 77 µM and 0.63 µM.
For `c1ccc(CC2CCN(CCSc3nc[nH]n3)CC2)cc1`, the figures for the IC50 in experiment [1], in experiment [2] and in experiment [3] were above 100 µM, above 100 µM and 0.13 µM, respectively.
As to `c1ccc(CC2CCN(CCSc3ccccc3)CC2)cc1`, the IC50 in experiment [1] was above 100 µM; in experiment [2] it was above 100 µM; in experiment [3] it was 0.93 µM.
Consider `c1ccc(CC2CCN(CCSc3ncc[nH]3)CC2)cc1`, for which the IC50 in experiment [1] was above 100 µM; in experiment [2] it was above 100 µM; in experiment [3] it was 0.07 µM.
With `c1ccc(CC2CCN(CCSc3nc4ncccc4[nH]3)CC2)cc1`, the figures for the IC50 in experiment [1], in experiment [2] and in experiment [3] were above 100 µM, above 100 µM and 0.24 µM, respectively.
On to `Oc1ccc(C#CCCN2CCC(Cc3ccccc3)CC2)cc1`, for which the results for the concentration for half-maximal inhibition (IC50) in experiment [1], in experiment [2] and in experiment [3] were above 100 µM, above 100 µM and 0.1 µM, respectively.
As for `Nc1nnc(SCCN2CCC(Cc3ccccc3)CC2)s1`, the results for the half-inhibitory concentration (IC50) in experiment [1], in experiment [2] and in experiment [3] were above 100 µM, above 100 µM and 0.21 µM, respectively.
Turning to `c1ccc(CC2CCN(CCCSc3ncc[nH]3)CC2)cc1`, the IC50 is above 100 µM in experiment [1], 77 µM in experiment [2] and 0.61 µM in experiment [3].
Taken in the same sequence, the figures for `O=[N+]([O-])c1ccc2[nH]c(SCCN3CCC(Cc4ccccc4)CC3)nc2c1` were above 100 µM, above 100 µM and 7.4 µM.
For `c1ccc(CC2CCN(CCCSc3ccccc3)CC2)cc1`, the results for the IC50 in experiment [1] and in experiment [3] were above 100 µM and 4.3 µM, respectively.
`Cc1nnc(SCCN2CCC(Cc3ccccc3)CC2)s1`: the IC50 in experiment [1] was above 100 µM; in experiment [2], above 100 µM; in experiment [3] it was 4.8 µM.
Consider `Cc1n[nH]c(SCCN2CCC(Cc3ccccc3)CC2)n1`, for which the results for the IC50 in experiment [1], in experiment [2] and in experiment [3] were above 100 µM, above 100 µM and 0.15 µM, respectively.
Consider `O=[N+]([O-])c1ccc2nc(SCCCN3CCC(Cc4ccccc4)CC3)[nH]c2c1`, for which the IC50 was above 100 µM in experiment [1], 61 µM in experiment [2] and 0.91 µM in experiment [3].
Taken in the same sequence, the figures for `c1ccc(CC2CCN(CCCSc3nnc[nH]3)CC2)cc1` were above 100 µM, 51 µM and 0.63 µM.
Taken in the same sequence, the figures for `Cc1n[nH]c(SCCCN2CCC(Cc3ccccc3)CC2)n1` were above 100 µM, above 100 µM and 1 µM.
`Nc1nnc(SCCCN2CCC(Cc3ccccc3)CC2)s1`: the IC50 in experiment [1] was above 100 µM; in experiment [2] it was 73 µM; in experiment [3], 0.56 µM.
Taken in the same sequence, the figures for `Nc1nnc(SCCN2CCC(Cc3ccccc3)CC2)[nH]1` were above 100 µM, above 100 µM and 0.035 µM.
